Test results from patent publication US10301304B2, “Selective inhibitor of phosphatidylinositol 3-kinase-gamma” (VERTEX PHARMACEUTICALS INCORPORATED, priority 2013, dated 2019).
Where two headings read alike, the source gives them in different places.

Key:
CYP2D6 = CYP2D6 (Homo sapiens, UniProt P10635); assay: Metabolism by Recombinant CYP Enzymes; assay type: in vitro ADME; conditions: 1 μM, recombinant CYP2D6, NADPH
Description: (§1) Microsomes that contained recombinant CYP enzymes (CYP1A2, 2B6, 2C8, 2C9, 2C19, 2D6, 2E1 and 3A4) were used to determine which CYP catalyzes the oxidation of Compound 1. Accordingly, Compound 1 (1 μM) was incubated with individual recombinant CYPs in the presence of the cofactor NADPH. The percent parent drug remaining at the end of the incubation period was determined by LC-MS/MS and compared to that present at the beginning.

CYP2B6 = CYP2B6 (Homo sapiens, UniProt P20813); assay: Metabolism by Recombinant CYP Enzymes; assay type: in vitro ADME; conditions: 1 μM, recombinant CYP2B6, NADPH
Sequence of CYP2B6 (P20813 whole entry): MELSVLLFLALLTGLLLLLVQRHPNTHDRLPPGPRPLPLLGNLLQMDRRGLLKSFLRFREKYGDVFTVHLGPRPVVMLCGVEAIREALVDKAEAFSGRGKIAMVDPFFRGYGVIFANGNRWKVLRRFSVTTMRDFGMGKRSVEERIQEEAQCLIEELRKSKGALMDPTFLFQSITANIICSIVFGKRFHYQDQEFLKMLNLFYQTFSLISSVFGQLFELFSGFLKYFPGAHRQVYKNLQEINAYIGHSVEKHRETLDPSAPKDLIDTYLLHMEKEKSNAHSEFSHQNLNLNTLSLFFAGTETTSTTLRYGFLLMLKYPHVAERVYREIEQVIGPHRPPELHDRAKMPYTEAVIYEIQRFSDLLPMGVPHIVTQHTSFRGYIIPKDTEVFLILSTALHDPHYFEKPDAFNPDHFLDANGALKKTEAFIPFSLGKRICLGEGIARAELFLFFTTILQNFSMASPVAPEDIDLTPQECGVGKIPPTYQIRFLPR
Description: as §1

CYP2C9 = CYP2C9 (Homo sapiens, UniProt P11712); assay: Metabolism by Recombinant CYP Enzymes; assay type: in vitro ADME; conditions: 1 μM, recombinant CYP2C9, NADPH
Sequence of CYP2C9 (P11712 whole entry): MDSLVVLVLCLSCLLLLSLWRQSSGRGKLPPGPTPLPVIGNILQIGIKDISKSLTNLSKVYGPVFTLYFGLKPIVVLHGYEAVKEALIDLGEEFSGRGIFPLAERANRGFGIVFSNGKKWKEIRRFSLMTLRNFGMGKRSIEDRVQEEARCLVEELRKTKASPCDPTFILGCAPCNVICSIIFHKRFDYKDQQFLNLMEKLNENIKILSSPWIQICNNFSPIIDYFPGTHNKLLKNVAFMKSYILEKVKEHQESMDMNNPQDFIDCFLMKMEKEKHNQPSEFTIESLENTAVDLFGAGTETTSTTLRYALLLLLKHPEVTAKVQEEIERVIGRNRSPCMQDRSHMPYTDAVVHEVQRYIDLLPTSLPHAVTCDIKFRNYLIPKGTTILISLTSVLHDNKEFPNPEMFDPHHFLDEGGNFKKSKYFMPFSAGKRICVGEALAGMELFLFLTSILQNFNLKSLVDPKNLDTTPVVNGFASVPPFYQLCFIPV
Description: as §1

CYP1A2 = CYP1A2 (Homo sapiens, UniProt P05177); assay: Metabolism by Recombinant CYP Enzymes; assay type: in vitro ADME; conditions: 1 μM, recombinant CYP1A2, NADPH
Sequence of CYP1A2 (P05177 whole entry): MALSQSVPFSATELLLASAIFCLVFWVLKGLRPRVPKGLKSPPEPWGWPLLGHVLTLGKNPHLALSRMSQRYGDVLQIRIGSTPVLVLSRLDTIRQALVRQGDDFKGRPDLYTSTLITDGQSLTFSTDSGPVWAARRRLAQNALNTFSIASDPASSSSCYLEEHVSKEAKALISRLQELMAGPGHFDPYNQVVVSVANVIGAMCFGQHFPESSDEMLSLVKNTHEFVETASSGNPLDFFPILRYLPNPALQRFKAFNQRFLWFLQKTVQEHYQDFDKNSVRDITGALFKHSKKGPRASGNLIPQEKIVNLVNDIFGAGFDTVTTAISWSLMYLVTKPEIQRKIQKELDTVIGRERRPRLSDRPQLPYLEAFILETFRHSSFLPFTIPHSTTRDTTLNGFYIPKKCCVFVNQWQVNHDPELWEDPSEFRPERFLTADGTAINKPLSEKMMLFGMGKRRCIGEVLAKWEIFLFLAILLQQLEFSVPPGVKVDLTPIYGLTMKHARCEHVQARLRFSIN
Description: as §1

CYP2E1 = CYP2E1 (Homo sapiens, UniProt P05181); assay: Metabolism by Recombinant CYP Enzymes; assay type: in vitro ADME; conditions: 1 μM, recombinant CYP2E1, NADPH
Sequence of CYP2E1 (P05181 whole entry): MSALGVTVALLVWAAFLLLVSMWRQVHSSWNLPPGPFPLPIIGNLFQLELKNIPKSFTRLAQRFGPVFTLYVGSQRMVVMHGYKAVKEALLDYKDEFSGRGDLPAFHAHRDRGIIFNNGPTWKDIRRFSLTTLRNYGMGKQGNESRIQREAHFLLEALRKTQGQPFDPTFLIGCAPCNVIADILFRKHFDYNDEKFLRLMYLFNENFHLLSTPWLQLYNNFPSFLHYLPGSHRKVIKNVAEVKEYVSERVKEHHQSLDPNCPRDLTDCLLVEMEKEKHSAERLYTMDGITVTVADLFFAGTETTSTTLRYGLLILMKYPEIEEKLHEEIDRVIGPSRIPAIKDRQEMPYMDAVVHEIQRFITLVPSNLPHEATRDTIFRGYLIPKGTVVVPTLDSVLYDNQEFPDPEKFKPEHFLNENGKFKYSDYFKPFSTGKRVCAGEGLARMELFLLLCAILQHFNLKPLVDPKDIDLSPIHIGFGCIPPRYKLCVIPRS
Description: as §1

CYP2C8 = CYP2C8 (Homo sapiens, UniProt P10632); assay: Metabolism by Recombinant CYP Enzymes; assay type: in vitro ADME; conditions: 1 μM, recombinant CYP2C8, NADPH
Sequence of CYP2C8 (P10632 whole entry): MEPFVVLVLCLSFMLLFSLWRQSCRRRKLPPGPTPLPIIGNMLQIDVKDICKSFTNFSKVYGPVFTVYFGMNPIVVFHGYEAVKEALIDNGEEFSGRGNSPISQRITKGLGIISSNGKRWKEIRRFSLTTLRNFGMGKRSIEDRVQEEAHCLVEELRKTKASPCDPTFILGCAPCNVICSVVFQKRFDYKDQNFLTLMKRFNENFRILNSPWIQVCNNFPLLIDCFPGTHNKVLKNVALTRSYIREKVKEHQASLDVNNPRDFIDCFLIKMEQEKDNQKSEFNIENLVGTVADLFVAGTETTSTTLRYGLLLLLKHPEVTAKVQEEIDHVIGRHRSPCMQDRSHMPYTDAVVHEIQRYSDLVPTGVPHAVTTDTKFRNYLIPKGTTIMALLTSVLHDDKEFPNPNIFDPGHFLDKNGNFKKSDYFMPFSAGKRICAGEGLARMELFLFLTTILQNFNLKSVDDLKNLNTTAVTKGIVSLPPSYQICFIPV
Description: as §1

CYP3A4 = CYP3A4 (Homo sapiens, UniProt P08684); assay: Metabolism by Recombinant CYP Enzymes; assay type: in vitro ADME; conditions: 1 μM
Sequence of CYP3A4 (P08684 whole entry): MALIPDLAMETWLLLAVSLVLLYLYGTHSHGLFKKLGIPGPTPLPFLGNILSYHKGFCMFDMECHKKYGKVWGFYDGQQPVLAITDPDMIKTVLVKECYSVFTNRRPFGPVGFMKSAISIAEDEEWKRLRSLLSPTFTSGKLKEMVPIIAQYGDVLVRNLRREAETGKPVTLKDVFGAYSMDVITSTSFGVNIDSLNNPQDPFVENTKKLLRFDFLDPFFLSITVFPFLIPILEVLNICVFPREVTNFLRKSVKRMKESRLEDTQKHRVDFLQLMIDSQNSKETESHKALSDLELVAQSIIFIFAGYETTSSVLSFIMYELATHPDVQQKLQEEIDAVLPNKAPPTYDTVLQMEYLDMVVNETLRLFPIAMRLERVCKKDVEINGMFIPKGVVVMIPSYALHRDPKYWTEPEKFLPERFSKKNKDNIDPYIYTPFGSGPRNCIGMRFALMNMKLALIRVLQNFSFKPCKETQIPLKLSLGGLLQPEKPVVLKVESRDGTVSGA
Description: as §1

MCF7 cells = assay: MCF-7 Proliferation Assay; assay type: cell-based, human; conditions: for IC50: Homo sapiens
Description: The PI3K-Akt signaling pathway regulates many normal cellular processes including cell proliferation, survival and growth that are critical for tumorigenesis. Dysregulation of the PI3K signaling pathway occurs commonly in human cancers. MCF7 is a human breast carcinoma cell line that has an activating E545K PI3Kα heterozygous mutation in the helical domain of the p110α protein leading to hyperactivity of the PI3K-alpha pathway. […] Compounds are added to MCF7 cells, cell proliferation/viability is measured 96 hours post compound treatment using cell titer-glo to measure the ATP content of the cells in the well. Lack of or reduced proliferation is a measure of the extent of PI3K-alpha inhibition.

Purified human B cells = assay: Human B Cell Proliferation Assay; assay type: cell-based
Text: B cells are highly dependent on PI3Kδ for their development and activity. […] has an essential and non-redundant role in signaling via the B cell receptor (BCR) complex. Both IgM induced Ca+ influx and proliferation are attenuated in mice lacking PI3K-δ or with PI3K-δ inhibitors. PI3K-gamma has no role to play in any B cell activity. The specificity of the BCR complex for the […] to evaluate the extent of […] inhibition in cells. Purified human B cells are stimulated with anti-IgM in the presence of test compounds. Four days later cell viability/proliferation was measured using cell titer-glo to measure the ATP content of the cells in the well. Lack of or reduced proliferation is a measure of the extent of […].

Sequence of CYP2D6 (P10635 whole entry): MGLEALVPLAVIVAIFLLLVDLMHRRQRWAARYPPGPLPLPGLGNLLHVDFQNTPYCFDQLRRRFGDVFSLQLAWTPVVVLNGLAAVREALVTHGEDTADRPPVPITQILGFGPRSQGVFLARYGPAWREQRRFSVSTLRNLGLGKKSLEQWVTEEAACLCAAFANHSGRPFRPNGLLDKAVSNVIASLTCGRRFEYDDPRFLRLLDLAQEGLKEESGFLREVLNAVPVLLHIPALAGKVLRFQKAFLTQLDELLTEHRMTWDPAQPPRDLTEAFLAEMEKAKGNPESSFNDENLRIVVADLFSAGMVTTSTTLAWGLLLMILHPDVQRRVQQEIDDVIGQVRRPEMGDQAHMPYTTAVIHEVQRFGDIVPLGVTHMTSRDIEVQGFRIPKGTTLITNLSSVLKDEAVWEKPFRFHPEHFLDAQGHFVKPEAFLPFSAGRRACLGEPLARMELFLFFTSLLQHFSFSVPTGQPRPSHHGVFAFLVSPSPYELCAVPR

Compound: Cc1cc(-c2cncc([C@@H](O)C(F)(F)F)c2)nc2c1C(=O)N(c1cnn(CC(F)F)c1)C2(C)C [Compound 1, (R)-6-(1-(2,2-difluoroethyl)-1H-pyrazol-4-yl)-4,7,7-trimethyl-2-(5-(2,2,2-trifluoro-1-hydroxyethyl)pyridin-3-yl)-6,7-dihydro-5H-pyrrolo[3,4-b]pyridin-5-one]
- % Parent Remaining @ 30 min (CYP2D6): 100%
- % Parent Remaining @ 30 min (CYP2B6): 107%
- % Parent Remaining @ 30 min (CYP2C9): 108%
- % Parent Remaining @ 30 min (CYP1A2): 105%
- % Parent Remaining @ 30 min (CYP2E1): 105%
- % Parent Remaining @ 30 min (CYP2C8): 105%
- Metabolism by recombinant CYPs (CYP3A4; in words): detected only in the incubation with CYP3A4
- % Parent Remaining @ 30 min (CYP3A4; recombinant CYP3A4, NADPH): 92%
- IC50 (MCF7 cells; MCF7, 96 h, MCF7 Proliferation, 96 hours, PI3K-alpha dependent, read-out: IC50 Avg +/− SD): > 17 µM
- IC50 (MCF7 cells; MCF7, MCF7 Proliferation, footnote **, read-out: Individual assay data (IC50)): 15.7 µM
- selectivity over PI3K-alpha (MCF7 cells; MCF7 proliferation): > 67 fold
- selectivity window over PI3K-δ (Purified human B cells; B cell proliferation): 11 fold
- IC50 (Purified human B cells; Homo sapiens, 96 h, B cell/IgM/Proliferation, four days, read-out: IC50 Avg +/− SD): 3.05 ± 0.44 µM
- selectivity over PI3K-delta in cell based assays (Purified human B cells; summary): 12 fold
